Test results reported in the Kinase Knowledgebase extract (Sharma et al. 2016).

What follows are compounds tested against ROCK2 (human) (UniProt O75116) (assay: Assessment of ROCK2 Kinase Activity using Luciferin-Luciferase Assay).
Sequence of ROCK2 (human) (O75116 whole entry, looked up): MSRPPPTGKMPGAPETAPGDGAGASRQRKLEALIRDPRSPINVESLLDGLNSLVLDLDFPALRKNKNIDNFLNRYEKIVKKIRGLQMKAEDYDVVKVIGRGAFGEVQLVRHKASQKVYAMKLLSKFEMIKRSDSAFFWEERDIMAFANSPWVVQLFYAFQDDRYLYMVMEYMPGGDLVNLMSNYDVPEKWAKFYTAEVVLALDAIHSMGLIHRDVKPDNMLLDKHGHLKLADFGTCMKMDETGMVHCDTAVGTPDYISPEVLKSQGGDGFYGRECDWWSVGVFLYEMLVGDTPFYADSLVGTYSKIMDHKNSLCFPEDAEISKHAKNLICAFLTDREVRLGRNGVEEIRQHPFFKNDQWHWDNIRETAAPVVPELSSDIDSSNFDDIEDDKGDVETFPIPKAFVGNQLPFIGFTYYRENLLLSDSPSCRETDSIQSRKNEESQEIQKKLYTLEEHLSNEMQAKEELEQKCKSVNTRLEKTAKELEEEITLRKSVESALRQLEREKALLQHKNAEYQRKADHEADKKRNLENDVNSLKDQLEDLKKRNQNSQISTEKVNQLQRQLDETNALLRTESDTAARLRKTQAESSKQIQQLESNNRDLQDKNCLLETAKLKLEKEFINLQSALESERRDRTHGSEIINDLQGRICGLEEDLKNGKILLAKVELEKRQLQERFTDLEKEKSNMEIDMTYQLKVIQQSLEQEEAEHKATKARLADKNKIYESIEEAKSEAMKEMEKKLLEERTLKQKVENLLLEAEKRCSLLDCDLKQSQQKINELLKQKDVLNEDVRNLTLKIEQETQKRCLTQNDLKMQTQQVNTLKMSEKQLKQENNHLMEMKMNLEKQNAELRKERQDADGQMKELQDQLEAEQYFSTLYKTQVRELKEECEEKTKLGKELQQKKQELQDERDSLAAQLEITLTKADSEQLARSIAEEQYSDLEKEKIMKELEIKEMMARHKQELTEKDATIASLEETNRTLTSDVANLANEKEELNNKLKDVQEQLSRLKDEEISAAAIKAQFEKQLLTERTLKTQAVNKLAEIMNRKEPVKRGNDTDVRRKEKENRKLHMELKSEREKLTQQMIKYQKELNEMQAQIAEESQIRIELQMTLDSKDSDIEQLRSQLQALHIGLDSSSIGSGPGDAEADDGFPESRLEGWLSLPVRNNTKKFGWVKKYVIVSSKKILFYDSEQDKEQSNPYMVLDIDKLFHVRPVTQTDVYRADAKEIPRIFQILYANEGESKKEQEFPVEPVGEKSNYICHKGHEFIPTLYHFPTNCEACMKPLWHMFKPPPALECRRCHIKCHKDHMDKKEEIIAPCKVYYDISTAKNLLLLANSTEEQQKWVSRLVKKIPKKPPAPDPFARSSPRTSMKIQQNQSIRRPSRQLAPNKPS

| Structure (SMILES) | IC50 |
| --- | --- |
| CN1CCc2nc(NC(=O)c3cccc([C@H]4CCCN4C(=O)c4csc(-c5cccnc5)n4)c3)sc2C1 | 4 nM |
| CN1CCc2nc(NC(=O)c3cccc([C@H]4CCCN4C(=O)c4ccc(-c5cnco5)cc4)c3)sc2C1 | 2.6 nM |
| CN1CCc2nc(NC(=O)c3cccc([C@H]4CCCN4C(=O)Nc4cccc(C(N)=O)c4)c3)sc2C1 | 94.6 nM |
| CN1CCc2nc(NC(=O)c3cccc([C@H]4CCCN4C(=O)c4ccc(-n5ccnc5)cc4)c3)sc2C1 | 14.5 nM |
| COc1ccc(C(=O)N2CCC[C@@H]2c2cccc(C(=O)Nc3nc4c(s3)CN(C)CC4)c2)cc1C | 45.1 nM |
| COc1ccc(C(=O)N2CCC[C@@H]2c2cccc(C(=O)Nc3nc4c(s3)C[C@@H](N3CCOCC3)CC4)c2)cc1Cl | 5.8 nM |
| CN1CCc2nc(NC(=O)c3cccc([C@H]4CCCN4C(=O)c4csc(-c5ccncc5)n4)c3)sc2C1 | 6.1 nM |

Results, then the compound that gave them:

| IC50 | Structure (SMILES) |
| --- | --- |
| 30.7 nM | COc1ccc(C(=O)N2CCC[C@@H]2c2cccc(C(=O)Nc3nc4c(s3)CN(C)CC4)c2)cc1OC |
| 2.5 nM | CN1CCc2nc(NC(=O)c3cccc([C@H]4CCCN4C(=O)c4cn5cc(C(N)=O)ccc5n4)c3)sc2C1 |
| 38 nM | COc1ccc(C(=O)N2CCC[C@@H]2c2cccc(C(=O)Nc3nc4c(s3)CN(C)CC4)c2)cc1Cl |
| 23.4 nM | CN1CCc2nc(NC(=O)c3cccc(OCC(=O)Nc4ccc(C#N)cc4)c3)sc2C1 |
| 91.4 nM | Cc1nnnn1-c1ccc(C(=O)N2CCC[C@@H]2c2cccc(C(=O)Nc3nc4c(s3)CN(C)CC4)c2)cc1 |
| 2.1 nM | CN1CCc2nc(NC(=O)c3cccc([C@H]4CCCN4C(=O)c4ccc5cc(O)ccc5c4)c3)sc2C1 |
| 6 nM | CN1CCc2nc(NC(=O)c3cccc([C@H]4CCCN4C(=O)c4nnn(-c5nonc5N)c4-c4ccccc4)c3)sc2C1 |
| 5.1 nM | N#Cc1ccc(NC(=O)COc2cccc(C(=O)Nc3nc4c(s3)C[C@@H](NCCC(F)(F)F)CC4)c2)cc1 |
| 80.4 nM | CN1CCc2nc(NC(=O)c3cccc([C@H]4CCCN4C(=O)c4cccc(-c5cccnc5)c4)c3)sc2C1 |
| 5.2 nM | N#CCCN[C@H]1CCc2nc(NC(=O)c3cccc(OCC(=O)Nc4ccc(C#N)cc4)c3)sc2C1 |

These compounds were tested against ROCK2 (human) (UniProt O75116) (assay: Assessment of ROCK2 Kinase Activity using IMAP Assay).

| Structure (SMILES) | IC50 |
| --- | --- |
| N#Cc1cccc2c1CCN2C(=O)N1CCC[C@@H]1c1cccc(C(=O)Nc2nc3c(s2)C[C@@H](N2CCOCC2)CC3)c1 | 2.9 nM |
| CN1CCc2nc(NC(=O)c3cccc([C@H]4CCCN4C(=O)c4csc(-c5cccnc5)n4)c3)sc2C1 | 13 nM |
| CN1CCc2nc(NC(=O)c3cccc([C@H]4CCCN4C(=O)c4ccc(-c5cnco5)cc4)c3)sc2C1 | 11.2 nM |
| COc1ccc(C(=O)N2CCC[C@@H]2c2cccc(C(=O)Nc3nc4c(s3)C[C@@H](N3CCOCC3)CC4)c2)cc1Cl | 7.9 nM |
| CN1CCc2nc(NC(=O)c3cccc([C@H]4CCCN4C(=O)c4csc(-c5ccncc5)n4)c3)sc2C1 | 16 nM |

Other lines, results leading:

| IC50 | Structure (SMILES) |
| --- | --- |
| 7.4 nM | CN1CCc2nc(NC(=O)c3cccc([C@H]4CCCN4C(=O)c4cn5cc(C(N)=O)ccc5n4)c3)sc2C1 |
| 4 nM | CN1CCc2nc(NC(=O)c3cccc([C@H]4CCCN4C(=O)c4ccc5cc(O)ccc5c4)c3)sc2C1 |
| 44 nM | CN1CCc2nc(NC(=O)c3cccc([C@H]4CCCN4C(=O)c4nnn(-c5nonc5N)c4-c4ccccc4)c3)sc2C1 |
| 0.6 nM | N#Cc1cccc(NC(=O)N2CCC[C@@H]2c2cccc(C(=O)Nc3nc4c(s3)C[C@@H](N3CCOCC3)CC4)c2)c1 |
| 32 nM | N#Cc1ccc(NC(=O)COc2cccc(C(=O)Nc3nc4c(s3)C[C@@H](NCCC(F)(F)F)CC4)c2)cc1 |
| 27 nM | N#CCCN[C@H]1CCc2nc(NC(=O)c3cccc(OCC(=O)Nc4ccc(C#N)cc4)c3)sc2C1 |
| 4.1 nM | CN1CCc2nc(NC(=O)c3cccc([C@H]4CCCN4C(=O)c4cc(-c5ccncc5)[nH]n4)c3)sc2C1 |
